Test results taken from ChEMBL document CHEMBL1697781, “Assessment of the health effects of chemicals in humans: II. Construction of an adverse effects database for QSAR modeling” (Curr Drug Discov Technol, 2004).

Key:
Conditions in all cases: human; call rule not given here
Hepatotoxicity [1] = assay: FDA HLAED, lactate dehydrogenase (LDH) increase
Hepatotoxicity [2] = assay: FDA HLAED, alkaline phosphatase increase
Hepatotoxicity [3] = assay: FDA HLAED, liver enzyme composite activity
Hepatotoxicity [4] = assay: FDA HLAED, gamma-glutamyl transferase (GGT) increase
Hepatotoxicity [5] = assay: FDA HLAED, serum glutamic oxaloacetic transaminase (SGOT) increase
Hepatotoxicity [6] = assay: FDA HLAED, serum glutamic pyruvic transaminase (SGPT) increase
For GGT Increase - Index Value in this document: reference of the scale not given here.
For LDH Increase - Index Value in this document: reference of the scale not given here.

`CC(C)N1CCN(c2ccc(OCC3COC(Cn4cncn4)(c4ccc(Cl)cc4Cl)O3)cc2)CC1` (configuration not stated) [TERCONAZOLE] was tested, and the “LDH Increase - Activity Score” value (Hepatotoxicity [1]) was “Inactive”, the “LDH Increase - Index Value” (Hepatotoxicity [1]) was 0 and the “LDH Increase - Number of Reports” value (Hepatotoxicity [1]) was less than 4. The “Alkaline Phosphatase Increase - Activity Score” value (Hepatotoxicity [2]) was “Inactive”, the “Alkaline Phosphatase Increase - Index Value” (Hepatotoxicity [2]) was 0 and the “Alkaline Phosphatase Increase - Number of Reports” value (Hepatotoxicity [2]) was less than 4. The “Composite Activity - Active” value (Hepatotoxicity [3]) was 0, the “Composite Activity - Marginal” value (Hepatotoxicity [3]) was 0 and the “Composite Activity - Score” value (Hepatotoxicity [3]) was “Inactive”. For the same compound, the “GGT Increase - Activity Score” value (Hepatotoxicity [4]) was “Inactive”, the “GGT Increase - Index Value” (Hepatotoxicity [4]) was 0 and the “GGT Increase - Number of Reports” value (Hepatotoxicity [4]) was less than 4. For the same compound, the “SGOT Increase - Activity Score” value (Hepatotoxicity [5]) was “Inactive”, the “SGOT Increase - Index Value” (Hepatotoxicity [5]) was 0 and the “SGOT Increase - Number of Reports” value (Hepatotoxicity [5]) was less than 4. The “SGPT Increase - Activity Score” value (Hepatotoxicity [6]) was “Inactive”, the “SGPT Increase - Index Value” (Hepatotoxicity [6]) was 0 and the “SGPT Increase - Number of Reports” value (Hepatotoxicity [6]) was less than 4.

For `CO/N=C(\C(=O)N[C@@H]1C(=O)N2C(C(=O)O)=C(CSc3nc(=O)c(=O)[nH]n3C)CS[C@H]12)c1csc(N)n1` [CEFTRIAXONE], the “LDH Increase - Activity Score” value (Hepatotoxicity [1]) was “Inactive”, the “LDH Increase - Index Value” (Hepatotoxicity [1]) was 1.9 and the “LDH Increase - Number of Reports” value (Hepatotoxicity [1]) was “>= 4”. For the same compound, the “Alkaline Phosphatase Increase - Activity Score” value (Hepatotoxicity [2]) was “Marginally Active”, the “Alkaline Phosphatase Increase - Index Value” (Hepatotoxicity [2]) was 3.4 and the “Alkaline Phosphatase Increase - Number of Reports” value (Hepatotoxicity [2]) was “>= 4”. For the same compound, the “Composite Activity - Active” value (Hepatotoxicity [3]) was 0, the “Composite Activity - Marginal” value (Hepatotoxicity [3]) was 3 and the “Composite Activity - Score” value (Hepatotoxicity [3]) was “Inactive”. The “GGT Increase - Activity Score” value (Hepatotoxicity [4]) was “Inactive”, the “GGT Increase - Index Value” (Hepatotoxicity [4]) was 2.6 and the “GGT Increase - Number of Reports” value (Hepatotoxicity [4]) was “>= 4”. The “SGOT Increase - Activity Score” value (Hepatotoxicity [5]) was “Marginally Active”, the “SGOT Increase - Index Value” (Hepatotoxicity [5]) was 3.8 and the “SGOT Increase - Number of Reports” value (Hepatotoxicity [5]) was “>= 4”. For the same compound, the “SGPT Increase - Activity Score” value (Hepatotoxicity [6]) was “Marginally Active”, the “SGPT Increase - Index Value” (Hepatotoxicity [6]) was 3.8 and the “SGPT Increase - Number of Reports” value (Hepatotoxicity [6]) was “>= 4”.

For `COc1ccc2[nH]c([S+]([O-])Cc3ncc(C)c(OC)c3C)nc2c1` (configuration not stated) [OMEPRAZOLE], the “LDH Increase - Activity Score” value (Hepatotoxicity [1]) was “Inactive”, the “LDH Increase - Index Value” (Hepatotoxicity [1]) was 0.5 and the “LDH Increase - Number of Reports” value (Hepatotoxicity [1]) was “>= 4”. The “Alkaline Phosphatase Increase - Activity Score” value (Hepatotoxicity [2]) was “Inactive”, the “Alkaline Phosphatase Increase - Index Value” (Hepatotoxicity [2]) was 1.8 and the “Alkaline Phosphatase Increase - Number of Reports” value (Hepatotoxicity [2]) was “>= 4”. For the same compound, the “Composite Activity - Active” value (Hepatotoxicity [3]) was 0, the “Composite Activity - Marginal” value (Hepatotoxicity [3]) was 0 and the “Composite Activity - Score” value (Hepatotoxicity [3]) was “Inactive”. For the same compound, the “GGT Increase - Activity Score” value (Hepatotoxicity [4]) was “Inactive”, the “GGT Increase - Index Value” (Hepatotoxicity [4]) was 0.8 and the “GGT Increase - Number of Reports” value (Hepatotoxicity [4]) was “>= 4”. For the same compound, the “SGOT Increase - Activity Score” value (Hepatotoxicity [5]) was “Inactive”, the “SGOT Increase - Index Value” (Hepatotoxicity [5]) was 1.2 and the “SGOT Increase - Number of Reports” value (Hepatotoxicity [5]) was “>= 4”. The “SGPT Increase - Activity Score” value (Hepatotoxicity [6]) was “Inactive”, the “SGPT Increase - Index Value” (Hepatotoxicity [6]) was 0.9 and the “SGPT Increase - Number of Reports” value (Hepatotoxicity [6]) was “>= 4”.

In the case of `Cc1ccc(-c2nc3ccc(C)cn3c2CC(=O)N(C)C)cc1` [ZOLPIDEM], the “LDH Increase - Activity Score” value (Hepatotoxicity [1]) is reported as “Inactive”, the “LDH Increase - Index Value” (Hepatotoxicity [1]) is reported as 0.7 and the “LDH Increase - Number of Reports” value (Hepatotoxicity [1]) is reported as “>= 4”. For the same compound, the “Alkaline Phosphatase Increase - Activity Score” value (Hepatotoxicity [2]) was “Marginally Active”, the “Alkaline Phosphatase Increase - Index Value” (Hepatotoxicity [2]) was 3 and the “Alkaline Phosphatase Increase - Number of Reports” value (Hepatotoxicity [2]) was “>= 4”. The “Composite Activity - Active” value (Hepatotoxicity [3]) was 0, the “Composite Activity - Marginal” value (Hepatotoxicity [3]) was 4 and the “Composite Activity - Score” value (Hepatotoxicity [3]) was “Marginally Active”. The “GGT Increase - Activity Score” value (Hepatotoxicity [4]) was “Marginally Active”, the “GGT Increase - Index Value” (Hepatotoxicity [4]) was 3 and the “GGT Increase - Number of Reports” value (Hepatotoxicity [4]) was “>= 4”. The “SGOT Increase - Activity Score” value (Hepatotoxicity [5]) was “Marginally Active”, the “SGOT Increase - Index Value” (Hepatotoxicity [5]) was 3.8 and the “SGOT Increase - Number of Reports” value (Hepatotoxicity [5]) was “>= 4”. For the same compound, the “SGPT Increase - Activity Score” value (Hepatotoxicity [6]) was “Marginally Active”, the “SGPT Increase - Index Value” (Hepatotoxicity [6]) was 3.9 and the “SGPT Increase - Number of Reports” value (Hepatotoxicity [6]) was “>= 4”.

For `CCOC(=O)c1ccc(C#Cc2ccc3c(c2)C(C)(C)CCS3)nc1` [TAZAROTENE], the “LDH Increase - Activity Score” value (Hepatotoxicity [1]) was “Inactive”, the “LDH Increase - Index Value” (Hepatotoxicity [1]) was 0 and the “LDH Increase - Number of Reports” value (Hepatotoxicity [1]) was less than 4. The “Alkaline Phosphatase Increase - Activity Score” value (Hepatotoxicity [2]) was “Inactive”, the “Alkaline Phosphatase Increase - Index Value” (Hepatotoxicity [2]) was 0 and the “Alkaline Phosphatase Increase - Number of Reports” value (Hepatotoxicity [2]) was less than 4. For the same compound, the “Composite Activity - Active” value (Hepatotoxicity [3]) was 0, the “Composite Activity - Marginal” value (Hepatotoxicity [3]) was 0 and the “Composite Activity - Score” value (Hepatotoxicity [3]) was “Inactive”. The “GGT Increase - Activity Score” value (Hepatotoxicity [4]) was “Inactive”, the “GGT Increase - Index Value” (Hepatotoxicity [4]) was 0 and the “GGT Increase - Number of Reports” value (Hepatotoxicity [4]) was less than 4. For the same compound, the “SGOT Increase - Activity Score” value (Hepatotoxicity [5]) was “Inactive”, the “SGOT Increase - Index Value” (Hepatotoxicity [5]) was 0 and the “SGOT Increase - Number of Reports” value (Hepatotoxicity [5]) was less than 4. For the same compound, the “SGPT Increase - Activity Score” value (Hepatotoxicity [6]) was “Inactive”, the “SGPT Increase - Index Value” (Hepatotoxicity [6]) was 0 and the “SGPT Increase - Number of Reports” value (Hepatotoxicity [6]) was less than 4.

For `CN1CCN(C2=Nc3cc(Cl)ccc3Nc3ccccc32)CC1` [CLOZAPINE], the “LDH Increase - Activity Score” value (Hepatotoxicity [1]) was “Active”, the “LDH Increase - Index Value” (Hepatotoxicity [1]) was 16.8 and the “LDH Increase - Number of Reports” value (Hepatotoxicity [1]) was “>= 4”. For the same compound, the “Alkaline Phosphatase Increase - Activity Score” value (Hepatotoxicity [2]) was “Active”, the “Alkaline Phosphatase Increase - Index Value” (Hepatotoxicity [2]) was 34.2 and the “Alkaline Phosphatase Increase - Number of Reports” value (Hepatotoxicity [2]) was “>= 4”. For the same compound, the “Composite Activity - Active” value (Hepatotoxicity [3]) was 5, the “Composite Activity - Marginal” value (Hepatotoxicity [3]) was 0 and the “Composite Activity - Score” value (Hepatotoxicity [3]) was “Active”. For the same compound, the “GGT Increase - Activity Score” value (Hepatotoxicity [4]) was “Active”, the “GGT Increase - Index Value” (Hepatotoxicity [4]) was 11.4 and the “GGT Increase - Number of Reports” value (Hepatotoxicity [4]) was “>= 4”. The “SGOT Increase - Activity Score” value (Hepatotoxicity [5]) was “Active”, the “SGOT Increase - Index Value” (Hepatotoxicity [5]) was 45.1 and the “SGOT Increase - Number of Reports” value (Hepatotoxicity [5]) was “>= 4”. For the same compound, the “SGPT Increase - Activity Score” value (Hepatotoxicity [6]) was “Active”, the “SGPT Increase - Index Value” (Hepatotoxicity [6]) was 42.9 and the “SGPT Increase - Number of Reports” value (Hepatotoxicity [6]) was “>= 4”.

`CO/N=C(\C(=O)N[C@@H]1C(=O)N2C(C(=O)O)=C(COC(N)=O)CS[C@H]12)c1ccco1` [CEFUROXIME] was tested, and the “LDH Increase - Activity Score” value (Hepatotoxicity [1]) was “Inactive”, the “LDH Increase - Index Value” (Hepatotoxicity [1]) was 0 and the “LDH Increase - Number of Reports” value (Hepatotoxicity [1]) was less than 4. For the same compound, the “Alkaline Phosphatase Increase - Activity Score” value (Hepatotoxicity [2]) was “Inactive”, the “Alkaline Phosphatase Increase - Index Value” (Hepatotoxicity [2]) was 0 and the “Alkaline Phosphatase Increase - Number of Reports” value (Hepatotoxicity [2]) was less than 4. For the same compound, the “Composite Activity - Active” value (Hepatotoxicity [3]) was 0, the “Composite Activity - Marginal” value (Hepatotoxicity [3]) was 0 and the “Composite Activity - Score” value (Hepatotoxicity [3]) was “Inactive”. The “GGT Increase - Activity Score” value (Hepatotoxicity [4]) was “Inactive”, the “GGT Increase - Index Value” (Hepatotoxicity [4]) was 0 and the “GGT Increase - Number of Reports” value (Hepatotoxicity [4]) was less than 4. For the same compound, the “SGOT Increase - Activity Score” value (Hepatotoxicity [5]) was “Inactive”, the “SGOT Increase - Index Value” (Hepatotoxicity [5]) was 0.2 and the “SGOT Increase - Number of Reports” value (Hepatotoxicity [5]) was less than 4. The “SGPT Increase - Activity Score” value (Hepatotoxicity [6]) was “Inactive”, the “SGPT Increase - Index Value” (Hepatotoxicity [6]) was 0 and the “SGPT Increase - Number of Reports” value (Hepatotoxicity [6]) was less than 4.

With `Cc1ccnc2c1NC(=O)c1cccnc1N2C1CC1` [NEVIRAPINE] the “LDH Increase - Activity Score” value (Hepatotoxicity [1]) was “Active”, the “LDH Increase - Index Value” (Hepatotoxicity [1]) was 34.4 and the “LDH Increase - Number of Reports” value (Hepatotoxicity [1]) was “>= 4”. The “Alkaline Phosphatase Increase - Activity Score” value (Hepatotoxicity [2]) was “Active”, the “Alkaline Phosphatase Increase - Index Value” (Hepatotoxicity [2]) was 27.5 and the “Alkaline Phosphatase Increase - Number of Reports” value (Hepatotoxicity [2]) was “>= 4”. The “Composite Activity - Active” value (Hepatotoxicity [3]) was 5, the “Composite Activity - Marginal” value (Hepatotoxicity [3]) was 0 and the “Composite Activity - Score” value (Hepatotoxicity [3]) was “Active”. The “GGT Increase - Activity Score” value (Hepatotoxicity [4]) was “Active”, the “GGT Increase - Index Value” (Hepatotoxicity [4]) was 41.2 and the “GGT Increase - Number of Reports” value (Hepatotoxicity [4]) was “>= 4”. For the same compound, the “SGOT Increase - Activity Score” value (Hepatotoxicity [5]) was “Active”, the “SGOT Increase - Index Value” (Hepatotoxicity [5]) was 68.7 and the “SGOT Increase - Number of Reports” value (Hepatotoxicity [5]) was “>= 4”. The “SGPT Increase - Activity Score” value (Hepatotoxicity [6]) was “Active”, the “SGPT Increase - Index Value” (Hepatotoxicity [6]) was 55 and the “SGPT Increase - Number of Reports” value (Hepatotoxicity [6]) was “>= 4”.

In the case of `C[C@]12CC[C@@H]3c4ccc(O)cc4CC[C@H]3[C@@H]1CC[C@@H]2OC(=O)CCC1CCCC1` [ESTRADIOL CYPIONATE], the “LDH Increase - Activity Score” value (Hepatotoxicity [1]) is reported as “Inactive”, the “LDH Increase - Index Value” (Hepatotoxicity [1]) is reported as 1.2 and the “LDH Increase - Number of Reports” value (Hepatotoxicity [1]) is reported as “>= 4”. The “Alkaline Phosphatase Increase - Activity Score” value (Hepatotoxicity [2]) was “Inactive”, the “Alkaline Phosphatase Increase - Index Value” (Hepatotoxicity [2]) was 1.5 and the “Alkaline Phosphatase Increase - Number of Reports” value (Hepatotoxicity [2]) was “>= 4”. For the same compound, the “Composite Activity - Active” value (Hepatotoxicity [3]) was 0, the “Composite Activity - Marginal” value (Hepatotoxicity [3]) was 0 and the “Composite Activity - Score” value (Hepatotoxicity [3]) was “Inactive”. The “GGT Increase - Activity Score” value (Hepatotoxicity [4]) was “Inactive”, the “GGT Increase - Index Value” (Hepatotoxicity [4]) was 0.3 and the “GGT Increase - Number of Reports” value (Hepatotoxicity [4]) was less than 4. The “SGOT Increase - Activity Score” value (Hepatotoxicity [5]) was “Inactive”, the “SGOT Increase - Index Value” (Hepatotoxicity [5]) was 2.8 and the “SGOT Increase - Number of Reports” value (Hepatotoxicity [5]) was “>= 4”. For the same compound, the “SGPT Increase - Activity Score” value (Hepatotoxicity [6]) was “Inactive”, the “SGPT Increase - Index Value” (Hepatotoxicity [6]) was 2.1 and the “SGPT Increase - Number of Reports” value (Hepatotoxicity [6]) was “>= 4”.
